Calls of active or inactive are those of the source. The rule behind the calls is not given here.
How the values were obtained:
[1] = test system: Staphylococcus aureus; assay: Antimicrobial activity against Staphylococcus aureus ATCC 12600 assessed as zone of inhibition at 60 ug incubated overnight by agar well diffusion assay; format: functional; conditions: read-out: DIZ
[2] = test system: Staphylococcus epidermidis; assay: Antimicrobial activity against Staphylococcus epidermidis ATCC 14990 assessed as zone of inhibition at 60 ug incubated overnight by agar well diffusion assay; format: functional; conditions: read-out: DIZ
[3] = test system: Candida albicans; assay: Antibiofilm activity against Candida albicans assessed as reduction in biofilm formation at 100 uM incubated for 48 hrs by XTT biofilm assay; format: functional, organism-based

Compound: O=c1cc(CCCCCCCCCCO)[nH]c2ccccc12
- zone of inhibition at 60 µg/disc [1]: 0 mm
- zone of inhibition at 60 µg/disc [2]: 0 mm
- Activity [3]: inactive

Compound: O=c1cc(CCCCCCCCO)[nH]c2ccccc12
- zone of inhibition at 60 µg/disc [1]: 0 mm
- zone of inhibition at 60 µg/disc [2]: 0 mm

Compound: CCCCCCCCc1cc(=O)c2ccccc2[nH]1
- zone of inhibition at 60 µg/disc [1]: 11 mm
- zone of inhibition at 60 µg/disc [2]: 12 mm
- Activity [3]: Active

Compound: CC(=O)OCCCCCCCCCc1cc(=O)c2ccccc2[nH]1
- zone of inhibition at 60 µg/disc [1]: 11 mm
- zone of inhibition at 60 µg/disc [2]: 11 mm

Compound: CCCCCCCCCc1cc(=O)c2ccccc2[nH]1
- zone of inhibition at 60 µg/disc [1]: 12 mm
- zone of inhibition at 60 µg/disc [2]: 12 mm
- Activity [3]: Active

Compound: O=c1cc(CCCCCCCCCO)[nH]c2ccccc12
- zone of inhibition at 60 µg/disc [1]: 0 mm
- zone of inhibition at 60 µg/disc [2]: 0 mm
- Activity [3]: inactive

Compound: CC(=O)OCCCCCCCCc1cc(=O)c2ccccc2[nH]1
- zone of inhibition at 60 µg/disc [1]: 9 mm
- zone of inhibition at 60 µg/disc [2]: 9 mm

Compound: CC(=O)OCCCCCCCc1cc(=O)c2ccccc2[nH]1
- zone of inhibition at 60 µg/disc [1]: 8 mm
- zone of inhibition at 60 µg/disc [2]: 7 mm

Compound: CCCCCCCCCCc1cc(=O)c2ccccc2[nH]1
- zone of inhibition at 60 µg/disc [1]: 10 mm
- zone of inhibition at 60 µg/disc [2]: 12 mm
- Activity [3]: Active

Compound: CC(=O)OCCCCCCCCCCc1cc(=O)c2ccccc2[nH]1
- zone of inhibition at 60 µg/disc [1]: 10 mm
- zone of inhibition at 60 µg/disc [2]: 10 mm

Compound: CC1(C)S[C@@H]2[C@H](NC(=O)Cc3ccccc3)C(=O)N2[C@H]1C(=O)O [PENICILLIN G]
- zone of inhibition at 60 µg/disc [1]: 41 mm
- zone of inhibition at 60 µg/disc [2]: 38 mm

Compound: CCCCCc1cc(O)c2ccccc2n1
- zone of inhibition at 60 µg/disc [1]: 13 mm
- zone of inhibition at 60 µg/disc [2]: 14 mm
- Activity [3]: Active

Compound: O=c1cc(CCCCCCCO)[nH]c2ccccc12
- zone of inhibition at 60 µg/disc [1]: 0 mm
- zone of inhibition at 60 µg/disc [2]: 0 mm
- Activity [3]: inactive

Compound: CCCCCCCc1cc(=O)c2ccccc2[nH]1
- zone of inhibition at 60 µg/disc [1]: 13 mm
- zone of inhibition at 60 µg/disc [2]: 13 mm
- Activity [3]: Active
